Results reported in patent publication US8293721B2, “CETP inhibitors derived from benzoxazole arylamides” (Merck Sharpe & Dohme Corp., priority 2007, dated 2012).

Biological target: T1, recombinant human CETP (Homo sapiens, UniProt P11597)
T1 construct: made in house; host or cells: CHO cells
T1 sequence (P11597 18-493): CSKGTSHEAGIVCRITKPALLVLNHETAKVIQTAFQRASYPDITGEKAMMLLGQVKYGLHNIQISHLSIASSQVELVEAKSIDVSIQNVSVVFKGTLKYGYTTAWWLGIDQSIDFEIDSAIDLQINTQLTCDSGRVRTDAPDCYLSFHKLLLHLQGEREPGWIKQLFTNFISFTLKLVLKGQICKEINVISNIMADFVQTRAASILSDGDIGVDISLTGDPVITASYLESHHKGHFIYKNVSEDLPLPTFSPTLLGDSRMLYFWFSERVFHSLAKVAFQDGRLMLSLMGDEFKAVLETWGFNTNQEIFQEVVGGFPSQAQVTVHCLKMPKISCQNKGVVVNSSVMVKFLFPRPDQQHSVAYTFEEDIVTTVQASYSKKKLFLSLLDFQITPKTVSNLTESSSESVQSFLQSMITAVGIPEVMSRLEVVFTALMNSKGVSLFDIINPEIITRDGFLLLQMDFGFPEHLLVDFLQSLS
Assay: In vitro continuous CETP assay, CE transfer reaction (BODIPY-CE donor particles, fluorescence)
Type: biochemical
Conditions: 25° C., 3% human serum, stated for the compounds 'or a stereoisomer of the compounds', read-out: IC50 value as measured for the CE transfer reaction
Description: An in vitro continuous assay for determining IC50's to identify compounds that are CETP inhibitors was performed based on a modification of the method described by Epps et al. employing BODIPY®-CE as the cholesteryl ester lipid donor and BODIPY®-TG as the triglyceride lipid donor. See Epps et al. (1995) Method for measuring the activities of cholesteryl ester transfer protein (lipid transfer protein), Chem. Phys. Lipids. 77, 51-63.
Particles used in the assay were created from the following materials by probe sonication essentially as described by Epps et al. Synthetic cholesteryl ester (CE) donor HDL particles contained DOPC (Dioleoyl Phosphatidyl Choline), BODIPY®-CE (Molecular Probes C-3927), triolein (a triglyceride), dabcyl dicetylamide, (a non-diffusable quencher molecule to reduce background fluorescence) and apoHDL. Synthetic triglyceride (TG) donor HDL particles contained DOPC, BODIPY®-TG, and apoHDL. BODIPY®-TG was synthesized at room temperature from diolein and the BODIPY containing fatty acid analog 4,4-difluoro-5-(2-thienyl)-4-bora-3a,4a-diaza-s-indacene-3-dodecanoic acid (Molecular Probes) in methylene chloride in the presence of dicyclohexyl carbodimide. Dabcyl dicetylamide was made by heating dabcyl n-succinimide with dicetylamine in DMF at 95° C. overnight in the presence of diisopropylamine catalyst. Native lipoproteins from human blood were used as acceptor particles. Particles having a density less than 1.063 g/ml were collected by ultracentrifugation. These particles include VLDL, IDL, and LDL. Particle concentrations were expressed in terms of protein concentration as determined by BCA assay (Pierce, USA). Particles were stored at 4° C. until use.
Assays were performed in Dynex Microfluor 2 U-bottom black 96-well plates (Cat #7205). An assay cocktail containing CETP, 1×CETP buffer (50 mM Tris, pH 7.4, 100 mM NaCl, 1 mM EDTA), 3% human serum, and half the final concentration of acceptor particles was prepared, and 100 μL of the assay cocktail was added to each well of the plate. Test compounds in DMSO were added in a volume of 3 μL. The plate was mixed on a plate shaker and then incubated at 25° C. for 1 hour. A second assay cocktail containing donor particles, the remaining acceptor particles and 1×CETP buffer was prepared. 47 μL of the second assay cocktail was added to the reaction wells to start the assay. Assays were performed in a final volume of 150 μL. CE transfer reactions were performed as follows: final concentrations of materials were: 2.5 ng/μL CE donor particles, 7.5 ng/μL acceptor particles (each expressed by protein content), 1×CETP buffer, 14-30 nM recombinant human CETP (expressed in CHO cells and partially purified), and up to 2% DMSO when testing compounds; reactions were followed in a fluorescence plate reader (Molecular Devices Spectramax GeminiXS) set for a 45 minute kinetic run at 25° C. which read the samples every 45 sec at Ex=480 nm, Em=511 nm, with a cutoff filter at 495 nm, photomultiplier tube setting of medium, calibration on, and 6 reads/well. TG transfer reactions were performed as described above with the exception that 2.5 ng/uL TG donor particles were used. TG transfer was measured at an excitation wavelength of 538 nm while reading emission at 568 nm every 45 sec for 45 min at 37° C. with a cutoff filter at 550 nm.
Data were evaluated by obtaining an initial rate, expressed in relative fluorescence units per second, for the pseudolinear portion of the curve, often 0-500 or 1000 sec. Comparison of the rates of samples with inhibitors to an uninhibited (DMSO only) positive control yielded a percent inhibition. A plot of percent inhibition vs. log of inhibitor concentration, fit to a Sigmoidal 4 parameter equation was used to calculate IC50.

| SMILES | IC50 [nM] |
| --- | --- |
| CC(C)c1cc(C#N)cc2nc(-c3ccc(C(=O)NCC4CN(c5ccc(-c6ccccc6OC(F)(F)F)cn5)C(=O)O4)cc3)oc12 (stereo not shown) [Example 2, 4-(5-Cyano-7-isopropyl-1,3-benzoxazol-2-yl)-N-[(2-oxo-3-{5-[2-(trifluoromethoxy)phenyl]pyridin-2-yl}-1,3-oxazolidin-5-yl)methyl]benzamide] | 18 to 100 |
| CC(C)COc1ccccc1-c1ccc(N2CC(CNC(=O)c3ccc(-c4nc5cc(C#N)cc(C(C)C)c5o4)cc3)OC2=O)nc1 (stereo not shown) [Example 7] | 18 to 100 |
| CC(C)Oc1ccc(F)cc1-c1ccc(N2C[C@@H](CNC(=O)c3ccc(-c4nc5cc(C#N)cc(C(C)C)c5o4)cc3)OC2=O)nc1 [Example 30] | 18 to 100 |
| COc1cc(F)c(C(C)C)cc1-c1ccc(N2C[C@@H](CNC(=O)c3ccc(-c4nc5cc(C#N)cc(C(C)C)c5o4)cc3)OC2=O)nc1 [Example 31] | 18 to 100 |
| COc1ccccc1-c1ccc(N2C[C@H](CNC(=O)c3ccc(-c4nc5cc(C#N)cc(C(C)C)c5o4)cc3)OC2=O)nc1 [Example 43] | 18 to 100 |
| CC(C)Oc1cccc(F)c1-c1ccc(N2C[C@H](CNC(=O)c3ccc(-c4nc5cc(C#N)cc(C(C)C)c5o4)cc3)OC2=O)nc1 [Example 48] | 18 to 100 |
| CC(C)c1cc(C#N)cc2nc(-c3ccc(C(=O)NCC4(C)CN(c5ccc(-c6ccccc6OC(F)(F)F)cn5)C(=O)O4)cc3)oc12 (stereo not shown) [Example 51, 4-(5-Cyano-7-isopropyl-1,3-benzoxazol-2-yl)-N-[(5-methyl-2-oxo-3-{5-[2-(trifluoro-methoxy)phenyl]pyridin-2-yl}-1,3-oxazolidin-5-yl)methyl]benzamide] | 18 to 100 |
| COc1ccccc1-c1ccc(N2CC(C)(CNC(=O)c3ccc(-c4nc5cc(C#N)cc(C(C)C)c5o4)cc3)OC2=O)nc1 (stereo not shown) [Example 53] | 18 to 100 |
| CC(C)Oc1ccc(F)cc1-c1ccc(N2CC(C)(CNC(=O)c3ccc(-c4nc5cc(C#N)cc(C(C)C)c5o4)cc3)OC2=O)nc1 (stereo not shown) [Example 54] | 18 to 100 |
| CC(C)c1cc(C#N)cc2nc(-c3ccc(C(=O)NCC4(C)CN(c5ccc(-c6ccccc6)cn5)C(=O)O4)cc3)oc12 (stereo not shown) [Example 55] | 18 to 100 |
